Results as given in EPA's ToxValDB 9.5 (doi:10.2903/j.efsa.2010.1624).
Converted amounts (≈) assume the structure as drawn.

Key:
Apis mellifera = settings: acute; duration: 48 hours; oral; unspecified; mortality
Anas platyrhynchos = settings: oral, mortality
Folsomia candida = settings: chronic/long-term; reproduction
Canidae = settings: subchronic; duration: 90 days; oral; Dog Other; histopathology: nonneoplastic
Plant = settings: chronic/long-term; development
Typhlodromus pyri = settings: not reported
Mus musculus = settings: acute; oral; mortality
Daphnia magna = settings: chronic/long-term; duration: 21 days
[1] = reproduction developmental, reproduction

Work on `CC(C)N1C(=O)N(c2ccccc2)CSC1=NC(C)(C)C` [Buprofezin] yielded an LC50 (Tagia sp.; acute, duration: 14 days, mortality) of over 1000 mg/kg, an NOEC (Tagia sp.; chronic/long-term, reproduction) of 500 mg/kg and an LD50 (Apis mellifera) of over 164 µg/piece. It also gave an LD50 (Rattus norvegicus; acute, oral, mortality) of over 2000 mg/kg-day, an NOAEL (Rattus norvegicus; chronic, duration: 2 years, histopathology: nonneoplastic) of 1 mg/kg-day and an NOAEL (Rattus norvegicus; developmental, development) of 50 mg/kg-day. For the same compound, the NOEL (Rattus norvegicus; [1]) was 66 mg/kg-day, the LD50 (Anas platyrhynchos; acute, unspecified) was over 2000 mg/kg-day and the LC50 (Anas platyrhynchos; short-term, feed) was over 1310 mg/kg-day. For the same compound, the LC50 (Colinus virginianus; acute, oral, diet, mortality) was over 1310 mg/kg-day, the LD50 (Colinus virginianus; acute, oral, mortality) was over 2000 mg/kg-day and the NOEC (Colinus virginianus; developmental, development) was 48 mg/kg-day. It also gave an NOEC (Colinus virginianus; [1]) of 198 mg/kg-day, an NOEC (Folsomia candida) of 62.5 mg/kg and an LC50 (Oncorhynchus mykiss; acute, duration: 96 hours, mortality) of 0.33 µg/mL (≈ 1.08 µM). The NOEC (Oncorhynchus mykiss; chronic/long-term, growth) was 0.052 mg/L, the NOAEL (Canidae) was 10 mg/kg-day and the LEL (Plant) was over 100 g/ha. It also gave an LEL (Typhlodromus pyri; mortality) of 3000 g/ha, an LEL (Typhlodromus pyri; reproduction) of 3000 g/ha and an LD50 (Mus musculus) of over 2000 mg/kg-day. It also gave an NOEC (Daphnia magna) of 0.08 mg/L.
